Reference: patent publication US20150111852A1, “1-Di(sec-butyl)-phosphinoyl-pentane (dapa-2-5) as a topical agent” (priority 2013, published 2015)
Converted amounts (≈) assume the structure as drawn. “And” between values parts separate entries of the source, which are not always exact repeats. Identical values can stand only once. “Also recorded” adds a separate entry of the source.

How the values were obtained:
mouth and throat = assay: Sensory activity of ODT-C on volunteers (double-blind, modified ASHRAE scale); format: in vivo, human; settings: for ODT-C test results (sensation and taste in words) / duration of cooling effect: 1.2 to 1.5 mg per ODT; for ODT-C test results (sensation and taste in words): 4 volunteers; for quality of heat abstraction sensation (peak intensity) / duration of cooling effect: ODT-C; for ASHRAE equivalent: peak heat abstraction sensation, modified ASHRAE scale neutral [0] to icy cold [-4]
Experimental: ODT-C. More experiments were conducted to find a smaller tablet, in the range of 40 to 60 mg, with a disintegration of <10 sec. These paraemters might achieve a better pharmacological effect. ODT-B was 100 mg in size and disintegrated in <20 sec. […] For example, to 1.5 g of DAPA-2-5 is added 1.5 g of absolute ethanol, followed by 2.0 g of Neusilin US2. The mixture is shaken or mixed in a Speedmixer at 500 rpm for 1 min. The sample is placed under a heat source and about 2 hr later, the sample size is re-weighed with the expectation that the ethanol has been evaporated and the sample now weights 3.5 g. This powder is free-flowing. • b. a sample of maltitol powder is prepared (Maltisorb® P200 from Roquette). • c. a sample of Prosolv® EasyTab is prepared (JRS Pharma, Rosenburg, Germany). • d. a blend of a. [2.80 g], b. [15.73 g] and c. [31.46 g] is prepared to make 1000 ODT tablets, each weighing 50 mg and containing 1.2 mg of DAPA-2-5. • e. the blend is first shaken by hand, then placed for 2 min in a SpeedMixer at 500 rpm. The blend is poured into the funnel of a New Single Punch Tablet Press Pill Making Machine Maker TDP-1-5 [available from Amazon.com] and the extruded tablets are collected.
ODT-C, described in Study 2, were tested for sensory properties on 4 volunteers, with at least 3 trials per compound and at 1.2 to 1.5 mg per ODT. The ODT was placed on the mid-line posterior dorsal surface of the tongue and sensory effects recorded for 30 min on a standardized form […]. The ODT were coded and administered on a double-blind basis. A modified ASHRAE scale of neutral, slightly cool [-1], cool [-2], cold [-3], and icy cold [-4] was used to rank the peak heat abstraction sensations in the mouth and throat. Other perceived effects, e.g. taste and duration, were also noted.

oropharynx = assay: Sensory effects and cold discomfort of compounds given orally in ODT (general evaluation); format: in vivo, human; settings: for distribution of the sensation (throat vs chest): oral ODT
Experimental: The correlation between a chemical's potency at the TRPM8 receptor (measured by the EC50 μM) and potency to evoke sensory events in the oropharynx is complex.
When a test compound is applied to non-keratinizng bodily surfaces (e.g., oropharyngeal surface), it is possible to characterize the resulting sensations.
The sensations are akin to rapid drinking of cold water mixed and equilibrated with ice chips. The intense cold is further accentuated if the drink is acidified, for example, with lemonade. The sensations of dull and intense cold on the surface of the oropharynx can be described as painful, uncomfortable, and aversive. The term “icy cold” is used to describe these adverse intense cold sensations.
Together, these three types of sensations—“icy cold”, coldness in the chest, and systemic coldness—is termed “cold discomfort”. […] The ideal agent must have a circumscribed site of action, and the intensity of the sensation should not cause “icy cold”, coldness in the chest, or systemic chills.

[1] = test system: 0.1 N HCl-induced swallowing, pharyngolaryngeal region; assay: Acid-induced swallowing movements in the anesthetized rat; format: in vivo; settings: for Relative Potency (suppression of swallowing): DAPA-2-5 = 1.0
Source text: A principal endogenous irritant in the linings of the upper aerodigestive tract is hydrochloric acid. Acid stimulations of the mucosa of the pharynx will elicit reflex swallowing. […] In a rat animal model, solutions of organic acids such as acetic acid and citric acid were effective in eliciting swallowing [Kajii et al., Sour taste stimulation facilitates reflex swallowing from the pharynx and larynx in the rat Physiology & Behavior 77: 321-325, 2002]. In the present discovery, the method for measuring sensory responses to acid was adapted for screening agents that might suppress the sensitivity to hydrochloric acid. Agents that suppress the acid challenge may then have utility in relieving the discomfort of heartburn.
Experiments were conducted at the Pavlov Institute of Physiology, St. Petersburg, Russia. Adult male Wistar rats, weighing 200 to 400 g, were obtained from the Roppolovo Vivarium. All rats were anesthetized with sodium pentobarbital/urethane and fixed in the supine position. Body temperature was maintained at 37.0° C. with a heating pad. A midline incision was made in the ventral surface of the neck and the trachea was cannulated. A guide tube (polyethylene, diameter 2.2 mm) was fixed at the midline of the hard palate and an internal infusion tube (polyethylene, diameter 0.9 mm) was then placed flush to the end of soft palate. This procedure allows stimulation of the pharyngolaryngeal region with liquids, with minimum mechanical perturbation. An esophageal tube was placed at the thoracic level to drain solutions after infusion. The infused solution was applied to the pharyngolaryngeal region at a flow rate of 1.5 pUs for 20 sec using an infusion pump, giving a total unit volume of approximately 30 μL. Stimulations were applied at intervals of 2 to 3 min, with intervals allowed for rinsing and cleansing with suction. The solutions infused were distilled water, normal saline, 0.1 N hydrochloric acid, or test compounds dissolved in normal saline. A paired unipolar electrode was inserted into unilateral mylohyoid muscle to record electromyogram (EMG) activity and the signal processed for later analysis. Swallowing movements was identified as the EMG activity and could also be visualized as laryngeal movement. The number of swallows in a fixed interval was used as the endpoint.
The test procedures were similar to those described earlier (see, e.g., Kajii et al., 2002). Also, the drainage of the esophagus was at the thoracic level to avoid mechanical disturbance of the pharynx. The infusion rate of solutions was 1.5 μL/sec for 15 to 18 sec.
The response to 0.1 N HCl infusion (30 μL over an approximately 18 second period) was highly reproducible. On average there were 36±4 swallowing movements within one min (N=7 rats). This response could be elicited in the same rat over a 2 hour period with a rest period or saline infusions at 10 min intervals.
The up-down method of Dixon [Efficient analysis of experimental observations. Ann. Rev. […] The EC50 (N=8) for DAPA-2-5 was estimated to be 0.09 mg/mL.

rat skin = assay: Irritant activity on shaved abdominal rat skin; format: in vivo; design: key to Redness after 20 μL applied topically to skin (scale of 0 to +++): the presence of redness (irritation) was graded on a scale of 0 to +++; the presence of redness (irritation) was graded on a scale of 0 to +++; the presence of redness (irritation) was graded on a scale of 0 to +++; the presence of redness (irritation) was graded on a scale of 0 to +++; settings: for Redness after 20 μL applied topically to skin (scale of 0 to +++): pure compound, 1 hour; for skin irritancy in words: undiluted form
Experimental: This hypothesis was tested by applying 20 μL of the pure compound onto the shaved abdominal skin of a pentobarbital-anesthetized rat. The test substance was enclosed in a circle of ˜1 cm diameter with a ring of cream. The test substance was applied with a micropipette, and after 1 hour the area was wiped with a cotton pad and the presence of redness (irritation) was graded on a scale of 0 to +++.

SMILES | ODT-C test results (sensation and taste in words) (mouth and throat) | quality of heat abstraction sensation (peak intensity) (mouth and throat) | duration of cooling effect (mouth and throat) | ASHRAE equivalent (mouth and throat) | distribution of the sensation (throat vs chest) (oropharynx) | Relative Potency (suppression of swallowing) [1] | sensation at increased dose (oropharynx; dose increased to 8 mg (per tablet)) | duration of “dynamic cool” in the oropharynx (oropharynx; in vivo) | Redness after 20 μL applied topically to skin (scale of 0 to +++) (rat skin) | skin irritancy in words (rat skin) | swallows after second acid challenge ([1]; DAPA-2-5 0.4 mg/mL, 10 min after, 8 min after) [swallows per min] | swallows after third acid challenge ([1]; DAPA-2-5 0.4 mg/mL, 15 min after, after saline rinse, 22 min after) [swallows/min] | swallows after first acid challenge ([1]; DAPA-2-5 0.4 mg/mL, challenge 5 min later, within 3 min) [swallows/min] | EC50 ([1]; Rattus norvegicus, up-down method, 50% reduction of swallowing frequency, N=4 to 8, read-out: EC50 ± S.E.M. (mg/mL), suppression of acid-induced swallowing) [mg/mL] | Comments (duration of inhibition) ([1]; rat, in vivo) | Comments (reversibility of inhibition) ([1]; rat, in vivo) | inhibitory activity for swallowing relative to DAPA-2-5 ([1]; rat, in vivo) [%] | systemic sensations of cold (oropharynx; higher oral doses (e.g., 5 mg or more))
CCCCCCP(=O)(C(C)C)C(C)C [DAPA-1-6, 1-Di(isopropyl)-phosphinoyl-hexane] | intense sensation of icy cold, but has unpleasant | cold and icy cold which was painful to the back of the throat | lasting >10 min | −3.5 | sensations of cold in the chest; also recorded: spreads behind the sternum, into the chest |  |  |  |  |  |  |  |  |  |  |  |  | 
CCCCCCCP(=O)(C(C)C)C(C)C [DAPA-1-7, 1-Di(isopropyl)-phosphinoyl-heptane] | intense sensation of icy cold, but has unpleasant | cold and icy cold which was painful to the back of the throat | taste on the tongue: test dose of 1 to 2 mg, >15 min. | −3.5 | spreads behind the sternum, into the chest | 0.11 |  |  |  |  |  |  |  |  |  |  |  | 
CCCCCP(=O)(C(C)CC)C(C)CC (centres unmarked) [DAPA-2-5, 1-Di(sec-butyl)-phosphinoyl-pentane] | pleasant dynamic cool | refreshing coolness and cold | 12 to 15 min | −2.7 | remained localized to the throat and upper esophagus | 1.0 | burning penetrating quality to the sensation, but it was not aversive; also recorded: did not produce stinging, adverse tastes, or “icy cold” or cold discomfort | 5 to 15 min and 10 to 15 min | 0 | minimal or no pro-inflammatory actions on the skin | 9 | 27 | 3 | 0.09 (≈ 387 µM) | ~15 min | reversible; |  | 
CCCCCCP(=O)(C(C)CC)C(C)CC (centres unmarked) [DAPA-2-6, 1-Di(sec-butyl) phosphinoyl-hexane] | intense sensation of icy cold, but has unpleasant | cold and icy cold which was painful to the back of the throat | taste on the tongue, long-lasting >15 min | −3.2 | sensations of cold in the chest; also recorded: spreads behind the sternum, into the chest | 0.05 |  |  | + | is a skin irritant |  |  |  |  |  |  | 5 | 
CCCCCCCP(=O)(C(C)CC)C(C)CC (centres unmarked) [DAPA-2-7, 1-Di(sec-butyl) phosphinoyl-heptane] | intense sensation of icy cold, but has unpleasant | cold and icy cold which was painful to the back of the throat | taste on the tongue, long-lasting >15 min | −3.5 | sensations of cold in the chest; also recorded: spreads behind the sternum, into the chest | 0.45 |  |  | ++ | is a skin irritant |  |  |  |  | >~30 min | long-lasting; |  | sensations of cold on other body surfaces
CCCCCCCCP(=O)(C(C)CC)C(C)CC (centres unmarked) [DAPA-2-8, 1-Di(sec-butyl) phosphinoyl-octane] | strong unpleasant taste |  |  | −2.7 |  | 0.16 |  |  |  |  |  |  |  |  |  |  |  | 
